Results as given in ChEMBL document CHEMBL1134559 (J Med Chem, 2001).

Key:
[1] = Inhibition of stimulation of [35S]GTP-gamma-S, binding produced by the selective agonist (SNC-80, delta-receptor), in guinea pig caudate membranes
[2] = molecular target: T1, Kappa-type opioid receptor (Cavia porcellus, UniProt P41144); assay: Binding affinity to opioid receptor kappa 1 of guinea pig brain, using [3H]U-69593 as radioligand
[3] = molecular target: T2, Delta-type opioid receptor (Rattus norvegicus, UniProt P33533); assay: Binding affinity to delta-opioid receptor of rat brain using [3H]DADLE as radioligand
[4] = molecular target: T3, Mu-type opioid receptor (Rattus norvegicus, UniProt P33535); assay: Binding affinity to mu-opioid receptor of rat brain using [3H]DAMGO as radioligand
[5] = molecular target: T3, Mu-type opioid receptor; assay: Binding affinity to mu-opioid receptor of rat brain using [3H]DAMGO as radioligand.
[6] = molecular target: T3, Mu-type opioid receptor; assay: Antagonist activity on agonist (DAMGO) stimulated [35S]GTP-gamma-S, binding in cloned mu opioid receptors.; format: functional
[7] = molecular target: Mu-type opioid receptor (Cavia porcellus, UniProt P97266); assay: Inhibition of stimulation of [35S]GTP-gamma-S, binding produced by the selective agonist (DAMGO, mu-receptor), in guinea pig caudate membranes.; format: functional, cell membranes
[8] = molecular target: T2, Delta-type opioid receptor; assay: Binding affinity to delta-opioid receptor of rat brain using [3H]DADLE as radioligand.
[9] = molecular target: T1, Kappa-type opioid receptor; assay: Inhibition of stimulation of [35S]GTP-gamma-S, binding produced by the selective agonist (U69593, kappa-receptor), in guinea pig caudate membranes.

T3 sequence (P33535 whole entry): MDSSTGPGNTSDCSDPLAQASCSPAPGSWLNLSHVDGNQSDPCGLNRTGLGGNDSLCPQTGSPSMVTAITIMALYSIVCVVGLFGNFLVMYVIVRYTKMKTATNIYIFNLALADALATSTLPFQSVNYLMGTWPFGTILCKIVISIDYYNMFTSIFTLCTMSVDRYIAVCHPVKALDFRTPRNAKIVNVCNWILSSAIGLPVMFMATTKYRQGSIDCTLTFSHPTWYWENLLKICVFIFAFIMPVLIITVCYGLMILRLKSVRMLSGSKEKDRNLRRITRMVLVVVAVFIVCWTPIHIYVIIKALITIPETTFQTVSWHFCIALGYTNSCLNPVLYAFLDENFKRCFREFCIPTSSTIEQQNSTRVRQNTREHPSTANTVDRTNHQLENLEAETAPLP
T1 sequence (P41144 whole entry): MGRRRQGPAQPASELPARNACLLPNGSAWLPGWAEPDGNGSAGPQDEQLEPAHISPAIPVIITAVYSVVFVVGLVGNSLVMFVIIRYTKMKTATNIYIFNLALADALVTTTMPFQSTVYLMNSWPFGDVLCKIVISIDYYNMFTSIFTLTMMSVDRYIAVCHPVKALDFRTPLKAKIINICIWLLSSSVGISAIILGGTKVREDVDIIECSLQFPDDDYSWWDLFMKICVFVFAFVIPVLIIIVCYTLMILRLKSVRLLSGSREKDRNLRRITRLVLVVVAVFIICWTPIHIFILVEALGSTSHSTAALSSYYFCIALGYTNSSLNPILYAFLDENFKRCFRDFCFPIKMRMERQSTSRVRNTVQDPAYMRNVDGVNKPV
T2 sequence (P33533 whole entry): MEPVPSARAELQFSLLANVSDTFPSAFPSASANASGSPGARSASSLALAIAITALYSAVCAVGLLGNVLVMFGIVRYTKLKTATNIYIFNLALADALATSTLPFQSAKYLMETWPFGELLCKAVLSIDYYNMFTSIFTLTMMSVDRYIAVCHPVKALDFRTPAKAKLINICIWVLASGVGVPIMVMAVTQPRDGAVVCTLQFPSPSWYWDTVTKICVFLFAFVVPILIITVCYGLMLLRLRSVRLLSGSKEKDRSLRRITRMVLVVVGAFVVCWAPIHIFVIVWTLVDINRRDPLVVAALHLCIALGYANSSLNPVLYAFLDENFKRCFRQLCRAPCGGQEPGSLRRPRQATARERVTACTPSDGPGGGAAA
Mu-type opioid receptor (Cavia porcellus, UniProt P97266), sequence (P97266 whole entry): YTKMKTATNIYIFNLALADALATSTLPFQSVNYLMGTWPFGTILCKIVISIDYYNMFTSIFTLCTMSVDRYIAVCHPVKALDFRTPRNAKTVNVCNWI

SMILES	Ki [1] [nM]	Ki [2] [nM]	Ki [3] [nM]	Ki [4] [nM]	Ki [5] [nM]	Ki [6] [nM]	Ki [7] [nM]	Ki [8] [nM]	Ki [9] [nM]
CC(C)[C@@H](CN1CC[C@@](C)(c2cccc(O)c2)[C@@H](C)C1)NC(=O)CCc1ccc(O)cc1	450	3.84	> 3400	171	–	–	–	–	–
CC(C)[C@@H](CN1CC[C@@](C)(c2cccc(O)c2)[C@@H](C)C1)NC(=O)C1Cc2ccc(O)cc2CN1 (stereo partly specified)	–	–	–	–	3.73	3.42	2.16	301	0.02
Oc1ccc2c3c1O[C@H]1c4[nH]c5c(c4C[C@@]4(O)[C@@H](C2)N(CC2CC2)CC[C@]314)C[C@@]1(O)[C@H]2Cc3ccc(O)c4c3[C@@]1(CCN2CC1CC1)[C@H]5O4 [NORBINALTORPHIMINE]	–	109	86	–	–	–	–	–	–
